# In US20070134261A1, “Effectors of innate immunity” (priority 2001, published 2007):
# Where two headings read alike, the source gives them in different places. Residues, ends and D or L forms follow the SMILES beside them. No end group written: not given here.
# How the values were obtained:
# [1] = system: human bronchial epithelial cells (HBE); assay: LDH release assay (Cytotoxicity Detection Kit); type: cell-based; conditions: 24 hours; for LDH Release (OD490 nm): 100 μg/ml, no peptide control 1.0 ± 0.05; for toxicity / membrane damage: as measured by both assays (LDH, WST-1), HBE cells
# Protocol: (§1) The potential toxicity of the peptides was measured in two ways. First, the Cytotoxicity Detection Kit (Roche) (Lactate dehydrogenase-LDH) Assay was used. It is a colorimetric assay for the quantification of cell death and cell lysis, based on the measurement of LDH activity released from the cytosol of damaged cells into the supernatant. LDH is a stable cytoplasmic enzyme present in all cells and it is released into the cell culture supernatant upon damage of the plasma membrane. An increase in the amount of dead or plasma membrane-damaged cells results in an increase of the LDH enzyme activity in the culture supernatant as measured with an ELISA plate reader, OD490 nm (the amount of color formed in the assay is proportional to the number of lysed cells). In this assay, human bronchial epithelial cells (I6HBEo14, HBE) cells were incubated with 100 μg of peptide for 24 hours, the supernatant removed and tested for LDH. The other assay used to measure toxicity of the cationic peptides was the WST-1 assay (Roche). This assay is a colorimetric assay for the quantification of cell proliferation and cell viability, based on the cleavage of the tetrazolium salt WST-1 by mitochondrial dehydrogenases in viable cells (a non-radioactive alternative to the [^3H]-thymidine incorporation assay). In this assay, HBE cells were incubated with 100 μg of peptide for 24 hours, and then 10 μl/well Cell Proliferation Reagent WST-1 was added. The cells are incubated with the reagent and the plate is then measured with an ELISA plate reader, OD490 nm.
# HBE cells = assay: WST-1 assay (cell viability); type: cell-based, human
# Protocol: as §1
# [2] = type: cell-based
# A549 epithelial cells = assay: Human Operon arrays (PRHU04-S1) of A549 cells treated with peptide alone (Tables 31-37, 53); conditions: peptide 50 μg/ml, 4 h, A549 cells; for X58467 cytochrome P450, expression Ratio ID#:ctrl: Table 36
# [3] = Citobacter rhodensis, overnight, 96-well plate
# [4] = Enterohaemorrhagic E. coli, overnight, 96-well plate
# [5] = Escherichia coli, overnight, 96-well plate
# [6] = Pseudomonas aeruginosa, overnight, 96-well plate
# [7] = Salmonella enteritidis ssp. typhimurium, overnight, 96-well plate
# [8] = Staphylococcus aureus, overnight, 96-well plate
molecule,measurement,setting,value
CC[C@H](C)[C@H](NC(=O)CNC(=O)[C@H](CCCNC(=N)N)NC(=O)[C@H](CCSC)NC(=O)[C@H](CO)NC(=O)[C@@H](NC(=O)[C@H](CCCNC(=N)N)NC(=O)[C@H](CCCNC(=N)N)NC(=O)[C@@H](NC(=O)[C@H](CS)NC(=O)[C@H](Cc1c[nH]cn1)NC(=O)[C@@H](N)CCCNC(=N)N)[C@@H](C)CC)C(C)C)C(=O)N[C@H](C(=O)N[C@@H](CCSC)C(=O)N[C@@H](CCCNC(=N)N)C(=O)N[C@@H](CCCNC(=N)N)C(=O)N[C@@H](CS)C(=O)N[C@@H](CCCCN)C(=O)O)[C@@H](C)CC [SEQ ID NO: 38] (H-RHCIRRVSMRGIIMRRCK-OH),LDH Release (OD490 nm),[1],0.95 ± 0.02 OD490 nm
same,OD490 nm (WST-1 cell viability),HBE cells,1.83 ± 0.03 OD490 nm
same,"MIC, C. rhod.",[2]; 24 h,8 µg/mL
same,"MIC, E. coli",[2]; 24 h,0.5 µg/mL
same,"MIC, EHEC",[2]; 24 h,4 µg/mL
same,"MIC, P. aerug.",[2]; 24 h,64 µg/mL
same,"MIC, S. aureus",[2]; 24 h,32 µg/mL
same,"MIC, S. typhim.",[2]; 24 h,4 µg/mL
CC[C@H](C)[C@H](NC(=O)[C@H](CC(C)C)NC(=O)[C@H](C)NC(=O)[C@@H]1CCCN1C(=O)[C@H](CC(C)C)NC(=O)CNC(=O)[C@@H](NC(=O)[C@@H](NC(=O)[C@H](CC(C)C)NC(=O)[C@@H](NC(=O)[C@H](CCCCN)NC(=O)[C@H](CCCCN)NC(=O)[C@H](CC(C)C)NC(=O)[C@H](C)NC(=O)[C@H](CCCCN)NC(=O)[C@H](CCSC)NC(=O)[C@H](CC(C)C)NC(=O)[C@H](CCSC)NC(=O)[C@H](CCCCN)NC(=O)[C@H](CC(C)C)NC(=O)[C@H](Cc1ccccc1)NC(=O)[C@H](CO)NC(=O)[C@H](CCCCN)NC(=O)[C@H](CO)NC(=O)[C@@H](N)CCCCN)C(C)C)[C@@H](C)O)[C@@H](C)O)C(=O)N[C@@H](CO)C(=O)O [SEQ ID NO: 41],LDH Release (OD490 nm),[1],3.3 ± 0.2 OD490 nm
same,toxicity / membrane damage,[1],did induce membrane damage
same,OD490 nm (WST-1 cell viability),HBE cells,0.40 ± 0.01 OD490 nm
same,"MIC, C. rhod.",[2]; [3],2 µg/mL
same,"MIC, EHEC",[2]; [4],2 µg/mL
same,"MIC, E. coli",[2]; [5],4 µg/mL
same,"MIC, P. aerug.",[2]; [6],8 µg/mL
same,"MIC, S. typhim.",[2]; [7],8 µg/mL
same,"MIC, S. aureus",[2]; [8],64 µg/mL
DLPAKRGSAPGST [ID 12],"ID#:ctrl intensity ratio, M14565 cytochrome P450",A549 epithelial cells,10.6
Gentamicin,"MIC, C. rhod.",[2]; [3],0.25 µg/mL
same,"MIC, EHEC",[2]; [4],0.5 µg/mL
same,"MIC, E. coli",[2]; [5],0.25 µg/mL
same,"MIC, P. aerug.",[2]; [6],0.25 µg/mL
same,"MIC, S. typhim.",[2]; [7],0.25 µg/mL
same,"MIC, S. aureus",[2]; [8],0.25 µg/mL
KCKLFKKMLMLALKKVLTTGLPALKLTK [ID 40],"X58467 cytochrome P450, expression Ratio ID#:ctrl",A549 epithelial cells,15.4
KCKLFKKMLMLALKKVLTTGLPALKLTK [SEQ ID NO: 40],LDH Release (OD490 nm),[1],2.8 ± 0.5 OD490 nm
same,toxicity / membrane damage,[1],did induce membrane damage
same,OD490 nm (WST-1 cell viability),HBE cells,0.46 ± 0.06 OD490 nm
same,"MIC, C. rhod.",[2]; [3],4 µg/mL
same,"MIC, EHEC",[2]; [4],2 µg/mL
same,"MIC, E. coli",[2]; [5],4 µg/mL
same,"MIC, P. aerug.",[2]; [6],8 µg/mL
same,"MIC, S. typhim.",[2]; [7],4 µg/mL
same,"MIC, S. aureus",[2]; [8],32 µg/mL
KESIKVIIRGMMVRMKK [SEQ ID NO: 35],LDH Release (OD490 nm),[1],0.88 ± 0.03 OD490 nm
same,OD490 nm (WST-1 cell viability),HBE cells,1.00 ± 0.08 OD490 nm
same,"MIC, C. rhod.",[2]; 24 h,8 µg/mL
same,"MIC, E. coli",[2]; 24 h,4 µg/mL
same,"MIC, EHEC",[2]; 24 h,4 µg/mL
same,"MIC, P. aerug.",[2]; 24 h,64 µg/mL
same,"MIC, S. aureus",[2]; 24 h,128 µg/mL
same,"MIC, S. typhim.",[2]; 24 h,8 µg/mL
KKDAIKKVDIRGMDMRRAR [SEQ ID NO: 28],LDH Release (OD490 nm),[1],0.96 ± 0.06 OD490 nm
same,OD490 nm (WST-1 cell viability),HBE cells,1.69 ± 0.03 OD490 nm
same,"MIC, C. rhod.",[2]; 24 h,64 µg/mL
same,"MIC, EHEC",[2]; 24 h,128 µg/mL
same,"MIC, S. typhim.",[2]; 24 h,64 µg/mL
KKQMMKRVDVRGISVKRKR [SEQ ID NO: 34],LDH Release (OD490 nm),[1],1.02 ± 0.03 OD490 nm
same,OD490 nm (WST-1 cell viability),HBE cells,0.96 ± 0.05 OD490 nm
same,"MIC, C. rhod.",[2]; 24 h,64 µg/mL
same,"MIC, E. coli",[2]; 24 h,8 µg/mL
same,"MIC, EHEC",[2]; 24 h,8 µg/mL
same,"MIC, S. typhim.",[2]; 24 h,32 µg/mL
KMKSFAKMLMLALKKVLKVLTTALTLKAGLPS [ID 43],"X58467 cytochrome P450, expression Ratio ID#:ctrl",A549 epithelial cells,7.9
KNKAFAKMLMKALKKVTTAAKPLTG [ID 44],"X58467 cytochrome P450, expression Ratio ID#:ctrl",A549 epithelial cells,34.4
KQKLFAKMLMSALKKKTLVTTPLAGK [ID 45],"X58467 cytochrome P450, expression Ratio ID#:ctrl",A549 epithelial cells,3.4
KRTAIKKVSRRGMSVKARR [SEQ ID NO: 37],LDH Release (OD490 nm),[1],0.96 ± 0.04 OD490 nm
same,OD490 nm (WST-1 cell viability),HBE cells,1.67 ± 0.02 OD490 nm
KSRIVPAIPVSLL [SEQ ID NO: 7],LDH Release (OD490 nm),[1],1.01 ± 0.04 OD490 nm
same,OD490 nm (WST-1 cell viability),HBE cells,1.78 ± 0.10 OD490 nm
KTKKFAKMLMMALKKVVSTAKPLAILS [ID 42],"X58467 cytochrome P450, expression Ratio ID#:ctrl",A549 epithelial cells,4.7
NLPDLKKPRVPATS [ID 17],"ID#:ctrl intensity ratio, M14565 cytochrome P450",A549 epithelial cells,6.3
NLPDLKKPRVPATS [SEQ ID NO: 17],LDH Release (OD490 nm),[1],0.94 ± 0.04 OD490 nm
same,OD490 nm (WST-1 cell viability),HBE cells,1.60 ± 0.46 OD490 nm
Polymyxin,"MIC, C. rhod.",[2]; [3],0.25 µg/mL
same,"MIC, EHEC",[2]; [4],0.5 µg/mL
same,"MIC, E. coli",[2]; [5],0.25 µg/mL
same,"MIC, P. aerug.",[2]; [6],0.25 µg/mL
same,"MIC, S. typhim.",[2]; [7],0.5 µg/mL
same,"MIC, S. aureus",[2]; [8],16 µg/mL
RAAFKWAWAWWRRK [ID 23],"ID#:ctrl intensity ratio, X65962 cytochrome P-450",A549 epithelial cells,19.8
RAPYWPWAWARPRK [ID 21],"ID#:ctrl intensity ratio, X65962 cytochrome P-450",A549 epithelial cells,5.7
"RLARIVVIRVAR-NH2 [SEQ ID NO: 3, reference compound]",LDH Release (OD490 nm),[1],1.05 ± 0.04 OD490 nm
same,OD490 nm (WST-1 cell viability),HBE cells,1.35 ± 0.12 OD490 nm
RRARIVPAIPVARR [SEQ ID NO: 9],LDH Release (OD490 nm),[1],1.6 ± 0.03 OD490 nm
same,OD490 nm (WST-1 cell viability),HBE cells,1.69 ± 0.29 OD490 nm
RRAWWKAWWARRK [ID 20],"ID#:ctrl intensity ratio, X65962 cytochrome P-450",A549 epithelial cells,25.3
RRRWKWAWPRRK [ID 24],"ID#:ctrl intensity ratio, X65962 cytochrome P-450",A549 epithelial cells,12.0
SELPGLKHPCVPGS [SEQ ID NO: 13],LDH Release (OD490 nm),[1],0.93 ± 0.06 OD490 nm
same,OD490 nm (WST-1 cell viability),HBE cells,1.23 ± 0.11 OD490 nm
SLPIKHDRLPATS [ID 15],"ID#:ctrl intensity ratio, M14565 cytochrome P450",A549 epithelial cells,3.6
TTLGPVKRDSIPGE [ID 14],"ID#:ctrl intensity ratio, M14565 cytochrome P450",A549 epithelial cells,5.0
TTLGPVKRDSIPGE [SEQ ID NO: 14],LDH Release (OD490 nm),[1],0.99 ± 0.05 OD490 nm
same,OD490 nm (WST-1 cell viability),HBE cells,1.25 ± 0.02 OD490 nm
Triton X-100 [reference compound],LDH Release (OD490 nm),[1],4.6 ± 0.1 OD490 nm
same,OD490 nm (WST-1 cell viability),HBE cells,0.26 ± 0.01 OD490 nm
